This is an account of results in BindingDB's records for PubMed 37257213 (Birla Institute of Technology and Science Pilani).

In this assay the target is Trypanothione reductase (UniProt P39050). The experiment in a line: Inhibition of Leishmania donovani Trypanothione reductase.

pIC50: −log10 of the molar value.

Trypanothione reductase, sequence (P39050 whole entry): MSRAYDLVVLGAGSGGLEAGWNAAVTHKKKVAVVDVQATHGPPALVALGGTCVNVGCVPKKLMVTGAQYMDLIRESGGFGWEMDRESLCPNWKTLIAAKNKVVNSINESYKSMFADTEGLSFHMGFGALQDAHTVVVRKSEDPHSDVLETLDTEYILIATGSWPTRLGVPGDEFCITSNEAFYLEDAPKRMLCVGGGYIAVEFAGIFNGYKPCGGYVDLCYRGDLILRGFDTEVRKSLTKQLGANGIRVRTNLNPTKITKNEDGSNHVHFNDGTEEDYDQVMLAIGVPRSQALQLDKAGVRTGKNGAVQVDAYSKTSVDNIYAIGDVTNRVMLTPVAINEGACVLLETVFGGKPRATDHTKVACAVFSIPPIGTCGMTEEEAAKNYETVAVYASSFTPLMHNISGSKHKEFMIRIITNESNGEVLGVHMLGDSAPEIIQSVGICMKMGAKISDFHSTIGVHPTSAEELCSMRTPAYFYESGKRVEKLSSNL

Usually pIC50 stands for the IC50 on a negative log10 scale, so that one unit is a factor of ten. A lower pIC50 goes with a large IC50. `CN(C)c1ncnc2c1C1(CCCC1)Cc1ccccc1-2` [Name not given] had a pIC50 of 4.04.
